Results reported in patent US20080318977A1, “Condensed Pyridines as Kinase Inhibitors” (Palau Pharma, S.A., priority 2004, published 2008).

Target: T1, p38α (Homo sapiens, UniProt Q16539)
T1 construct: GST-tagged fusion protein corresponding to full-length human p38α; purchased Upstate 14-251; host or cells: E. coli
Test: Inhibition of p38α enzyme activity (IMAP fluorescence polarisation kinase assay)
Format: biochemical
Conditions: at 1 μM compound; ATP 20 μM; 2 h at RT
Method: Inhibition of p38α Enzyme Activity:
Compound stocks in 100% DMSO are first diluted in DMSO to a concentration of 1×10^−3 up to 3.2×10^−8 M and then further diluted in kinase assay buffer (10 mM Tris-HCl, pH 7.2, 10 mM MgCl2, 0.01% tween 20, 0.05% NaN3, 1 mM dithiothreitol) to a concentration range of 4×10^−5 up to 1.3×10^−9 M. Of each compound solution 5 μL is transferred into a 384-wells black Optiplate (Packard, 6007279), followed by the addition of 5 μL of ATP (Boehringer, 519987), 5 μL of Fluorescein-labeled EGFR (Epidermal Growth Factor Receptor) peptide substrate and 5 μL of active p38 cc kinase (GST-tagged fusion protein corresponding to full-length human p38α; expressed in E. coli by Upstate, 14-251), all diluted in kinase assay buffer (see final concentrations in Table 1). The mixture is incubated for 2 h at room temperature (RT). The reaction is stopped by the addition of 60 μL of IMAP binding reagent, which has been diluted 400-fold in IMAP binding buffer (stock concentration 5 times diluted in Milli Q). After incubation for 30 min at RT, FP is measured on an Analyst™ multimode fluorescence plate reader (Molecular Devices) at excitation wavelength of 485 nm and emission wavelength of 530 nm (1 sec/well).
Data handling is performed as follows: percentage effects are calculated based on no-p38-enzyme-addition as the maximum inhibitory effect and with p38 enzyme addition as the minimum inhibitory effect. In each experiment, individual compound concentrations are tested in duplicate and percentage effect is calculated for each concentration.

T1 sequence (Q16539 whole entry, the tested form may be a part): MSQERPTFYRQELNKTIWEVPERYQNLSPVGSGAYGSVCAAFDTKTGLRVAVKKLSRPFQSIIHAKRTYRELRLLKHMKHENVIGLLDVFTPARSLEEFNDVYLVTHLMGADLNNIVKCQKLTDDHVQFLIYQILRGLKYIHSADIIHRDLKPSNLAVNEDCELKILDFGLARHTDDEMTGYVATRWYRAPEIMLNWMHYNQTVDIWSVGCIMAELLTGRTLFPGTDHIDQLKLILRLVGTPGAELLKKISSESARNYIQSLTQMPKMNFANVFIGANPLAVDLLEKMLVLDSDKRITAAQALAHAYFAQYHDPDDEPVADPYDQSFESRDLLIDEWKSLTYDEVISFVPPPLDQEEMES

SMILES	inhibition at 1 µM [%]
COCCCNc1nccc(-c2cc3c(C)noc3nc2-c2ccc(F)cc2)n1 [Example 41, {4-[6-(4-Fluoro-phenyl)-3-methyl-isoxazolo[5,4-b]pyridin-5-yl]-pyrimidin-2-yl}-(3-methoxy-propyl)-amine]	> 50
Cn1c(CO)cc2nc(-c3ccc(F)cc3)c(-c3ccncc3)c(-c3ccc(F)cc3)c21 [Example 6, [5,7-Bis(4-fluorophenyl)-1-methyl-6-(4-pyridyl)pyrrolo[3,2-b]pyridin-2-yl]methanol]	> 50
O=C(NCCN1CCOCC1)c1cc2c(-c3ccc(F)cc3)c(-c3ccncc3)c(-c3ccc(F)cc3)nc2o1 [Example 25, 4,6-Bis-(4-fluoro-phenyl)-5-pyridin-4-yl-furo[2,3-b]pyridine-2-carboxylic acid (2-morpholin-4-yl-ethyl)-amide]	> 50
OCc1cc2c(-c3ccc(F)cc3)c(-c3ccncc3)c(-c3ccc(F)cc3)nc2o1 [Example 22, [4,6-Bis(4-fluorophenyl)-5-(4-pyridyl)furo[2,3-b]pyridin-2-yl]methanol]	> 50
O=C(NCCN1CCCCC1)c1cc2c(-c3ccc(F)cc3)c(-c3ccncc3)c(-c3ccc(F)cc3)nc2o1 [Example 26, 4,6-Bis-(4-fluoro-phenyl)-5-pyridin-4-yl-furo[2,3-b]pyridine-2-carboxylic acid (2-piperidin-1-yl-ethyl)-amide]	> 50
Cn1c(C(=O)NCCO)cc2nc(-c3ccc(F)cc3)c(-c3ccncc3)c(-c3ccc(F)cc3)c21 [Example 13, 5,7-Bis(4-fluorophenyl)-N-(2-hydroxyethyl)-1-methyl-6-(4-pyridyl)pyrrolo[3,2-b]pyridine-2-carboxamide]	> 50

More lines, now with the values ahead:

inhibition at 1 µM [%]	SMILES
> 50	COc1ccc(-c2nc3cc[nH]c3cc2-c2ccnc(N[C@@H](C)c3ccccc3)n2)cc1 [Example 47, (S)-{4-[5-(4-Methoxy-phenyl)-1H-pyrrolo[3,2-b]pyridin-6-yl]-pyrimidin-2-yl}-(1-phenyl-ethyl)-amine]
> 50	COCCCNc1nccc(-c2cc3c(C)nsc3nc2-c2ccc(F)cc2)n1 [Example 44, {4-[6-(4-Fluoro-phenyl)-3-methyl-isothiazolo[5,4-b]pyridin-5-yl]-pyrimidin-2-yl}-(3-methoxy-propyl)-amine]
> 50	Cc1nc2cc(-c3ccnc(N[C@@H](C)c4ccccc4)n3)c(-c3ccc(F)cc3)nc2s1 [Example 56, (S)-{4-[5-(4-Fluoro-phenyl)-2-methyl-thiazolo[5,4-b]pyridin-6-yl]-pyrimidin-2-yl}-(1-phenyl-ethyl)-amine]
